{"source": "paper PMC5315062", "about": "(Oncology and Therapy, 2016)", "key": {"[1]": {"experiment": "Stability of ponatinib in rat bio-samples under different storage conditions", "assay_type": "in vitro ADME", "details": "rat plasma, urine, feces; all RE (%) and RSD (%) below 15%"}, "[2]": {"experiment": "Single-dose pharmacokinetics of ponatinib in rats", "assay_type": "in vivo, Sprague–Dawley rats", "details": "rat; for half-life: T 1/2, rat; for Tmax: T max"}, "[3]": {"experiment": "Toxicity and mortality after repeated intragastric administration in rats", "assay_type": "in vivo"}, "[4]": {"experiment": "Single- versus multi-dose", "details": "rat"}, "[5]": {"experiment": "Tissue distribution in rats after i.g. 15.0 mg/kg", "assay_type": "in vivo, Sprague–Dawley rats", "details": "for exposure in lung and thyroid: rat, 3, 9, 24 h"}, "[6]": {"tested_on": "BCR–ABL1", "details": "cited from earlier work"}, "[7]": {"details": "in vitro; large decrease in solubility with increasing pH; cited from earlier work"}, "[8]": {"details": "healthy subjects, meal within 30 min prior to single oral administration; cited from earlier work"}, "[9]": {"details": "both, Sprague-Dawley, plasma, iv, 3 mg/kg"}, "[10]": {"details": "both, Sprague-Dawley, plasma, po, 7.5 mg/kg"}, "[11]": {"details": "both, Sprague-Dawley, plasma, po, 7.5 mg/kg, i.g. 7.5 mg/kg"}, "[12]": {"details": "both, Sprague-Dawley, plasma, po, 15 mg/kg"}, "[13]": {"details": "both, Sprague-Dawley, plasma, po, 15 mg/kg, i.g. 15.0 mg/kg"}, "[14]": {"details": "both, Sprague-Dawley, plasma, po, 30 mg/kg"}, "[15]": {"details": "both, Sprague-Dawley, plasma, po, 30 mg/kg, i.g. 30.0 mg/kg"}, "[16]": {"details": "both, Sprague-Dawley, in vivo, po, 3.75 mg/kg"}, "[17]": {"details": "i.g. 3.75 mg/kg once a day for 7 days (multi-dose)"}}, "note": "Entries after “also recorded” stand apart in the source; their conditions may differ."}
{"smiles": "Cc1ccc(C(=O)Nc2ccc(CN3CCN(C)CC3)c(C(F)(F)F)c2)cc1C#Cc1cnc2cccnn12", "note": "[ponatinib, Ponatinib]", "values": [{"measurement": "stability under various storage conditions", "setting": "[1]", "value": "stable"}, {"measurement": "AUC(0-inf)", "setting": "[2]; [9]", "value": "2.18 ± 0.462", "unit": "µg·h/mL"}, {"measurement": "MRT", "setting": "[2]; [9]", "value": "9.77 ± 0.66", "unit": "h"}, {"measurement": "clearance", "setting": "[2]; [9]", "value": 1.43, "unit": "L/h/kg"}, {"measurement": "concentration at 5 min", "setting": "[2]; [9]", "value": "0.281 ± 0.129", "unit": "µg/mL"}, {"measurement": "half-life", "setting": "[2]; both, Sprague-Dawley, plasma, iv, 3 mg/kg, i.v. 3.0 mg/kg", "value": "6.17 ± 0.95", "unit": "h"}, {"measurement": "AUC(0-inf)", "setting": "[2]; [10]", "value": "1.91 ± 0.353", "unit": "µg·h/mL"}, {"measurement": "Cmax", "setting": "[2]; [10]", "value": "0.104 ± 0.0234", "unit": "µg/mL"}, {"measurement": "MRT", "setting": "[2]; [10]", "value": "16.4 ± 1.25", "unit": "h"}, {"measurement": "half-life", "setting": "[2]; [11]", "value": "10.9 ± 1.06", "unit": "h"}, {"measurement": "Tmax", "setting": "[2]; [11]", "value": "8.4 ± 2.19", "unit": "h"}, {"measurement": "AUC(0-inf)", "setting": "[2]; [12]", "value": "5.03 ± 1.01", "unit": "µg·h/mL"}, {"measurement": "Cmax", "setting": "[2]; [12]", "value": "0.285 ± 0.069", "unit": "µg/mL"}, {"measurement": "MRT", "setting": "[2]; [12]", "value": "16.7 ± 2.74", "unit": "h"}, {"measurement": "half-life", "setting": "[2]; [13]", "value": "9.7 ± 1.43", "unit": "h"}, {"measurement": "Tmax", "setting": "[2]; [13]", "value": "8.33 ± 0.82", "unit": "h"}, {"measurement": "AUC(0-inf)", "setting": "[2]; [14]", "value": "11.6 ± 2.89", "unit": "µg·h/mL"}, {"measurement": "Cmax", "setting": "[2]; [14]", "value": "0.638 ± 0.107", "unit": "µg/mL"}, {"measurement": "MRT", "setting": "[2]; [14]", "value": "16.5 ± 2.36", "unit": "h"}, {"measurement": "half-life", "setting": "[2]; [15]", "value": "9.66 ± 0.81", "unit": "h"}, {"measurement": "Tmax", "setting": "[2]; [15]", "value": "7.67 ± 0.82", "unit": "h"}, {"measurement": "CL", "setting": "[2]; i.g. 7.5 mg/kg", "value": "4.02 ± 0.68", "unit": "L/h/kg"}, {"measurement": "V", "setting": "[2]; i.g. 7.5 mg/kg", "value": "63.55 ± 14.02", "unit": "L/kg"}, {"measurement": "CL", "setting": "[2]; i.g. 15.0 mg/kg", "value": "3.07 ± 0.56", "unit": "L/h/kg"}, {"measurement": "V", "setting": "[2]; i.g. 15.0 mg/kg", "value": "42.85 ± 5.01", "unit": "L/kg"}, {"measurement": "CL", "setting": "[2]; i.g. 30.0 mg/kg", "value": "2.72 ± 0.76", "unit": "L/h/kg"}, {"measurement": "V", "setting": "[2]; i.g. 30.0 mg/kg", "value": "37.78 ± 9.26", "unit": "L/kg"}, {"measurement": "exposure in plasma in relation to dose", "setting": "[2]; i.g. 7.5, 15.0, 30.0 mg/kg", "value": "dose-dependent exposure"}, {"measurement": "V", "setting": "[2]; i.v. 3.0 mg/kg", "value": "12.93 ± 4.37", "unit": "L/kg"}, {"measurement": "toxicity", "setting": "[3]; 3.75 mg/kg consecutive administration for 7 days", "value": "Toxicity was displayed to some extent"}, {"measurement": "mortality", "setting": "[3]; repeated intragastric administration over 6 mg/kg", "value": "increased; also recorded: high mortality"}, {"measurement": "Cmax", "setting": "[4]; [16]", "value": "0.129 ± 0.0376", "unit": "µg/mL"}, {"measurement": "Cmax at 7 days", "setting": "[4]; [16]", "value": "0.189 ± 0.0557", "unit": "µg/mL"}, {"measurement": "Tmax", "setting": "[4]; [16]", "value": "10 ± 2.19", "unit": "h"}, {"measurement": "Tmax at 7 days", "setting": "[4]; [16]", "value": "6.67 ± 3.01", "unit": "h"}, {"measurement": "half-life", "setting": "[4]; [16]", "value": "11.3 ± 1.46", "unit": "h"}, {"measurement": "half-life at 7 days", "setting": "[4]; [16]", "value": "10.9 ± 1.56", "unit": "h"}, {"measurement": "CL", "setting": "[4]; [17]", "value": "0.70 ± 0.11", "unit": "L/h/kg"}, {"measurement": "V", "setting": "[4]; [17]", "value": "10.85 ± 1.49", "unit": "L/kg"}, {"measurement": "CL", "setting": "[4]; i.g. 3.75 mg/kg, single dose", "value": "1.79 ± 0.61", "unit": "L/h/kg"}, {"measurement": "V", "setting": "[4]; i.g. 3.75 mg/kg, single dose", "value": "28.91 ± 9.47", "unit": "L/kg"}, {"measurement": "distribution into tissues of the body", "setting": "[5]; rat", "value": "distributed widely; also recorded: widely distributed"}, {"measurement": "level in stomach, intestine and liver", "setting": "[5]; rat", "value": "fairly low"}, {"measurement": "exposure in lung and thyroid", "setting": "[5]", "value": "highly exposed; also recorded: highest levels"}, {"measurement": "exposure in lung and thyroid", "setting": "[5]; listed as Ponatinib", "value": "highest exposure"}, {"measurement": "concentration at which BCR–ABL1 is inhibited", "setting": "[6]", "value": "above 40 nmol/L"}, {"measurement": "aqueous solubility", "setting": "[7]", "value": "pH-dependent"}, {"measurement": "effect of a high- or low-fat meal on single-dose pharmacokinetics", "setting": "[8]", "value": "no effect"}]}
